Reference: ChEMBL document CHEMBL5338783, “Discovery of an Anti-TNF-α 9-mer Peptide from a T7 Phage Display Library for the Treatment of Inflammatory Bowel Disease” (J Med Chem, 2023)
Activity calls are given as the source filed them. Peptide text beside a SMILES is read from it.

How the values were obtained:
RAW264.7 [1] = experiment: Antiinflammatory activity in LPS-stimulated mouse RAW264.7 cells assessed as inhibition of ERK1/2 phosphorylation incubated for 3 hrs by Western blot analysis; type: functional, cell-based; conditions: dose 25-100 µM
Mus musculus [2] = experiment: Anti-colitis activity against DSS-induced acute colitis in C57BL/6 mouse model assessed as protection of body weight loss at 0.5 to 1 mg/kg, ip daily for 7 days; type: functional, organism-based; conditions: dose 0.5-1 mg/kg, time 7.0 day
RAW264.7 [3] = experiment: Antiinflammatory activity in mouse RAW264.7 cells assessed as decrease in LPS-stimulated IL-1beta protein expression incubated for 3 hrs by flow cytometry; type: functional, cell-based; conditions: dose 25-100 µM
RAW264.7 [4] = experiment: Antiinflammatory activity in mouse RAW264.7 cells assessed as decrease in LPS-stimulated TNF-alpha protein expression incubated for 3 hrs by flow cytometry; type: functional, cell-based; conditions: dose 25-100 µM
RAW264.7 [5] = experiment: Antiinflammatory activity in LPS-stimulated mouse RAW264.7 cells assessed as inhibition of JNK1/2 phosphorylation incubated for 3 hrs by Western blot analysis; type: functional, cell-based; conditions: dose 25-100 µM
BMDM [6] = experiment: Antiinflammatory activity in mouse BMDM cells assessed as decrease in LPS-stimulated IL-6 mRNA level incubated for 3 hrs by RT-qPCR analysis; type: functional, cell-based; conditions: dose 25-100 µM
Tumor necrosis factor = Tumor necrosis factor (Homo sapiens, UniProt P01375); experiment: Binding affinity to TNF-alpha (unknown origin) assessed as dissociation constant by SPR analysis
Mus musculus [7] = experiment: Anti-colitis activity against DSS-induced acute colitis in C57BL/6 mouse model assessed as increase in spleen index at 0.5 to 1 mg/kg, ip daily for 7 days; type: functional, organism-based; conditions: dose 0.5-1 mg/kg, time 7.0 day
Mus musculus [8] = experiment: Antiinflammatory activity against DSS-induced acute colitis in C57BL/6 mouse model assessed as decrease in p65 phosphorylation in colon tissue administered intraperitoneally daily for 7 days by Western blot analysis; type: functional, organism-based; conditions: dose 0.5-1 mg/kg, route ip, time 7.0 day
RAW264.7 [9] = experiment: Antiinflammatory activity in mouse RAW264.7 cells assessed as decrease in LPS-stimulated IL-1beta mRNA level incubated for 3 hrs by RT-qPCR analysis; type: functional, cell-based; conditions: dose 25-100 µM
Mus musculus [10] = experiment: Antiinflammatory activity against DSS-induced acute colitis in C57BL/6 mouse model assessed as decrease in ERK1/2 phosphorylation in colon tissue administered intraperitoneally daily for 7 days by Western blot analysis; type: functional, organism-based; conditions: dose 0.5-1 mg/kg, route ip, time 7.0 day
RAW264.7 [11] = experiment: Antiinflammatory activity in mouse RAW264.7 cells assessed as decrease in LPS-stimulated IFN-gamma mRNA level at 25 to 100 uM incubated for 3 hrs by RT-qPCR analysis; type: functional, cell-based; conditions: dose 25-100 µM
RAW264.7 [12] = experiment: Antiinflammatory activity in mouse RAW264.7 cells assessed as decrease in LPS-stimulated IFN-gamma protein expression incubated for 3 hrs by flow cytometry; type: functional, cell-based; conditions: dose 25-100 µM
Mus musculus [13] = experiment: Anti-colitis activity against DSS-induced acute colitis in C57BL/6 mouse model assessed as reduction in granulocyte infiltration in colon at 0.5 to 1 mg/kg, ip daily for 11 days by H and E staining based analysis; type: functional, organism-based; conditions: dose 0.5-1 mg/kg, time 11.0 day
RAW264.7 [14] = experiment: Cytotoxicity against mouse RAW264.7 cells upto 1000 uM; type: toxicity, cell-based; conditions: raw264.7, 1000 µM
BMDM [15] = experiment: Antiinflammatory activity in LPS-stimulated mouse BMDM cells assessed as inhibition of MAPK signalling pathway incubated for 3 hrs by Western blot analysis; type: functional, cell-based; conditions: dose 25-100 µM
Mus musculus [16] = experiment: Anti-colitis activity against DSS-induced acute colitis in C57BL/6 mouse model assessed as decrease in disease activity index at 0.5 to 1 mg/kg, ip daily for 7 days; type: functional, organism-based; conditions: dose 0.5-1 mg/kg, time 7.0 day
Mus musculus [17] = experiment: Anti-colitis activity against DSS-induced acute colitis in C57BL/6 mouse model assessed as reduction in goblet cell depletion in colon at 0.5 to 1 mg/kg, ip daily for 11 days by H and E staining based analysis; type: functional, organism-based; conditions: dose 0.5-1 mg/kg, time 11.0 day
BMDM [18] = experiment: Antiinflammatory activity in mouse BMDM cells assessed as decrease in LPS-stimulated IFN-alpha mRNA level incubated for 3 hrs by RT-qPCR analysis; type: functional, cell-based; conditions: dose 25-100 µM
RAW264.7 [19] = experiment: Antiinflammatory activity in mouse RAW264.7 cells assessed as decrease in LPS-stimulated IL-6 mRNA level at 25 to 100 uM incubated for 3 hrs by RT-qPCR analysis; type: functional, cell-based; conditions: dose 25-100 µM
Mus musculus [20] = experiment: Anti-colitis activity against DSS-induced acute colitis in C57BL/6 mouse model assessed as reduction in colon length at 0.5 to 1 mg/kg, ip daily for 7 days; type: functional, organism-based; conditions: dose 0.5-1 mg/kg, time 7.0 day
[21] = target: T1, Tumor necrosis factor receptor superfamily member 1A (Homo sapiens) (UniProt P19438); experiment: Binding affinity to TNFR1 (unknown origin) at 488.3 to 500 uM incubated for 10 mins by MST assay; conditions: dose 488.3-500 µM
T1 sequence (whole entry): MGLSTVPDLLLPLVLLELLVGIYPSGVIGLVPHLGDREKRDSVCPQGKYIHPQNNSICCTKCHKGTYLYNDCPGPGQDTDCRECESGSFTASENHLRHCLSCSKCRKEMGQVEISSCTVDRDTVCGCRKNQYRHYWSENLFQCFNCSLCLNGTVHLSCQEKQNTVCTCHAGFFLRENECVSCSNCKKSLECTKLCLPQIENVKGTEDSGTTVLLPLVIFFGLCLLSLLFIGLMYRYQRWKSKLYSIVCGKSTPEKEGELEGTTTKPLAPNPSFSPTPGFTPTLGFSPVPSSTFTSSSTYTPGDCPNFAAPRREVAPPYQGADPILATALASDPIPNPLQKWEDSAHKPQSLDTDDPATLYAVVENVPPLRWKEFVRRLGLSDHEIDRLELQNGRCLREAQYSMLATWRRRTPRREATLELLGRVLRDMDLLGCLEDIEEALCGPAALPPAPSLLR

BMDM [22] = experiment: Antiinflammatory activity in mouse BMDM cells assessed as decrease in LPS-stimulated TNF-alpha mRNA level incubated for 3 hrs by RT-qPCR analysis; type: functional, cell-based; conditions: dose 25-100 µM
L929 = experiment: Cytotoxicity against mouse L929 cells upto 1000 uM; type: toxicity, cell-based; conditions: l929, 1000 µM
RAW264.7 [23] = experiment: Antiinflammatory activity in LPS-stimulated mouse RAW264.7 cells assessed as inhibition of IkappaBalpha phosphorylation incubated for 3 hrs by Western blot analysis; type: functional, cell-based; conditions: dose 25-100 µM

Sequence of Tumor necrosis factor (P01375 whole entry): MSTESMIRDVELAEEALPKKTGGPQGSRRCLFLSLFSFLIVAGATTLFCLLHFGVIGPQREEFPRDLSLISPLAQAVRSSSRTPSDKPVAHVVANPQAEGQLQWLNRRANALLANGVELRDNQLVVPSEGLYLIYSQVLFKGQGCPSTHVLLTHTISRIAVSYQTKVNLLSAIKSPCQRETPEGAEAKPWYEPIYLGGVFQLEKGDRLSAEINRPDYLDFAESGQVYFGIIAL

C[C@H](N)C(=O)N[C@@H](CS)C(=O)N[C@@H](Cc1cnc[nH]1)C(=O)N[C@@H](C)C(=O)N[C@@H](Cc1c[nH]c2ccccc12)C(=O)N[C@@H](C)C(=O)N1CCC[C@H]1C(=O)N[C@H](C(=O)N[C@@H](CCCNC(=N)N)C(=O)O)[C@@H](C)O (H-ACHAWAPTR-OH)
inactive: Activity [21]
6 µM: Kd (Tumor necrosis factor)
Non-Toxic: Activity (RAW264.7 [14]) | Activity (L929)
active: Activity (RAW264.7 [1]) Dose-Dependent Effect | Activity (Mus musculus [2]) | Activity (RAW264.7 [3]) Dose-Dependent Effect | Activity (RAW264.7 [4]) Dose-Dependent Effect | Activity (RAW264.7 [5]) Dose-Dependent Effect | Activity (BMDM [6]) Dose-Dependent Effect | Activity (Mus musculus [7]) | Activity (Mus musculus [8]) Dose-Dependent Effect | Activity (RAW264.7 [9]) | Activity (Mus musculus [10]) Dose-Dependent Effect | Activity (RAW264.7 [11]) Dose-Dependent Effect | Activity (RAW264.7 [12]) Dose-Dependent Effect | Activity (Mus musculus [13]) | Activity (BMDM [15]) Dose-Dependent Effect | Activity (Mus musculus [16]) | Activity (Mus musculus [17]) | Activity (BMDM [18]) Dose-Dependent Effect | Activity (RAW264.7 [19]) Dose-Dependent Effect | Activity (Mus musculus [20]) | Activity (BMDM [22]) Dose-Dependent Effect | Activity (RAW264.7 [23]) Dose-Dependent Effect
